The subject of series [1] is CXCR4-expressing Chem_1 cells. The experiment in a line: Determination of internalization, dual tracer with 125I-Fc-131. The conditions noted are these: 2 h, 125I-labeled. It counts as cell-based. In outline:
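Chem_1 cells grown in DMEM-F12 with 10% FBS at 37 °C; wells (n=3 per time point) received medium or AMD3100 (1 mM stock) to block receptors. Unbound, surface-bound and NaOH-lysed internalized fractions were γ-counted; data corrected for non-specific internalization and referred to standard ligand specific internalization.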

The nature of series [2]: Octanol/PBS partition coefficient (logD7.4). The format is physicochemical. The conditions noted are these: n-octanol/PBS pH 7.4, radiolabeled compound. How it is done:
The tubes were vortexed at maximum speed for 3 min to ensure equilibrium before centrifugation at 15.000×g for 5 min on a Biofuge 15 from Heraeus Holding GmbH (Osterode, Germany). An aliquot of 100 μL of each fraction was measured in the γ-counter and the log D7.4 calculated as follows: […]

Series [3] has as its system U2932 cells. The conditions noted are these: 10, 20, 40, 100 nM, 24-96 h.
Protocol: (§1) Two cell lines were selected for the respective experiments. The B-cell lymphoma cell line U2932 and the higher CXCR4 expressing lymphoblast-like Raji cell line. Both cell lines were incubated with the PDC for 24, 48, 72 and 96 hours in varying concentrations of 0 (Blank), 10, 20, 40 and 100 nM.
Series [4] deals with U2932 cells. The conditions noted are these: 72 h, increasing amounts of PDC.
Protocol: For that purpose, cells were fixed, permeabilized and treated with propidium iodide. The number of cells in the G0/G1-, S— and G2/M-phase was then measured with regards to the amount of PDC used.
For another series, the target named is CXCR4 (Homo sapiens, UniProt P61073). The experiment in a line: Determination of IC50: competition with 125I-Fc-131 on CXCR4-positive Jurkat cells.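 Note: test compound at 10^−5 to 10^−11 M competed for 2 h at 8 °C with the radioligand on 400,000 cells per well, bound versus free activity measured by γ-counting.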 Further details: CXCR4-positive Jurkat T lymphocyte cells were grown in Gibco's RPMI 1640 GlutaMAX medium; endogenous in cells; host or cells: Jurkat T lymphocyte cells (whole cells in suspension, 400.000 per tube). The format is binding.
Sequence of CXCR4 (P61073 whole entry): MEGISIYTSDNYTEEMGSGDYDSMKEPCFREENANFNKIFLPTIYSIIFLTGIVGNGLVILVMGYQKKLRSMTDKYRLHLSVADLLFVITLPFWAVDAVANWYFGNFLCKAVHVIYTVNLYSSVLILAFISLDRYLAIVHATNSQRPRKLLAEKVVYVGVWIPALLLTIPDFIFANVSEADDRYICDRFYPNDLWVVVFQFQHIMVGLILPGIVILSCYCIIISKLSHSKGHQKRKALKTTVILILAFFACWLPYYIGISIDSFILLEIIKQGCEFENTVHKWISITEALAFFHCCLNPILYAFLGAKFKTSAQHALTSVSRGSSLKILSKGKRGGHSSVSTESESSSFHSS

Protocol for Raji cells: as §1

On to `CC[C@H](C)[C@@H]([C@@H](CC(=O)N1CCC[C@H]1[C@H](OC)[C@@H](C)C(=O)N[C@H](C)C(O)c1ccccc1)OC)N(C)C(=O)[C@@H](NC(=O)[C@H](C(C)C)N(C)C(=O)OCc1ccc(NC(=O)[C@H](CCCNC(N)=O)NC(=O)[C@@H](NC(=O)CCCCCN2C(=O)CC(SCC[C@@H](N)C(=O)NC(CCCNC(=N)N)C(=O)N[C@H](C)C(=O)Nc3ccc(C(=O)NCCC[C@@H]4C(=O)N[C@@H](CCCNC(=N)N)C(=O)N[C@H](Cc5ccc6ccccc6c5)C(=O)NCC(=O)N[C@@H](Cc5ccc(O)cc5)C(=O)N4C)cc3)C2=O)C(C)C)cc1)C(C)C` (stereo partly shown) [CXCR4-MMAE-2], for which the “Internalization 2 h [% of bound peptide]” value in series [1] is given as 27.9 ± 1.14 % of bound peptide. Moreover, in series [2], the logD7.4 is 1.11 ± 0.08 (5). Besides, the “fraction of dead cells” value in the series on Raji cells (96 h, 10, 20 and 40 nM, Raji vs U2932) is given as “considerably higher fraction of dead Raji cells compared to the U2932 cells”. Also, the cell viability result in the series on Raji cells (Raji cells, 10, 20, 40, 100 nM, 24-96 h) is recorded as “decreased cell viabilities”; with U2932 cells [3], “decreased cell viabilities”. Also, the “cells in G2/M-phase” value in the series with U2932 cells [4] is “higher number of cells stuck in the G2/M-phase”. At CXCR4, this compound gave an IC50 of 42.6 ± 8.3 nM.

For the origin of these results see patent publication US20250288704A1, “CXCR4-LIGANDS FOR DIAGNOSTIC AND THERAPEUTIC USE AND PRECURSORS THEREOF” (priority 2021, published 2025).
